Results from patent US20080039438A1, “1B-Methylcarbapenem Derivative and Process for the Preparation Thereof” (Korea Institute of Science and Technology, priority 2004, published 2008).
Values after ≈ are worked out from the molar mass of the structure shown.

Tests used:
Format in all cases: cell-based
Morganella morganii = test: MIC against clinically isolated aerobic Gram-negative strains; conditions: 15 strains
[1] = test system: Staphylococcus aureus SG511; test: MIC against standard strains (agar dilution); conditions: standard strain Staphylococcus aureus SG511, 37° C., 18 to 20 hours, read-out: Minimum Inhibitory Concentration (MIC)
[2] = test system: Staphylococcus aureus 503; test: MIC against standard strains (agar dilution); conditions: standard strain Staphylococcus aureus 503, 37° C., 18 to 20 hours, read-out: Minimum Inhibitory Concentration (MIC)
Enterobacter cloacae P99 = test: MIC against standard strains (agar dilution); conditions: standard strain Enterobacter cloacae P99, 37° C., 18 to 20 hours, read-out: Minimum Inhibitory Concentration (MIC)
[3] = test system: Staphylococcus aureus 285; test: MIC against standard strains (agar dilution); conditions: standard strain Staphylococcus aureus 285, 37° C., 18 to 20 hours, read-out: Minimum Inhibitory Concentration (MIC)
Enterococcus faecium = test: MIC against clinically isolated aerobic Gram-positive strains; conditions: Enterococcus faecium
Streptococcus pyogenes = test: as above; conditions: 15 strains
Peptostreptococcus spp. = test: MIC against clinically isolated anaerobic Gram-positive strains; conditions: 27 strains
Streptococcus pneumoniae = test: MIC against clinically isolated aerobic Gram-positive strains; conditions: 22 strains
Streptococcus agalactiae = test: as above; conditions: 15 strains
Acinetobacter baumannii = test: MIC against clinically isolated aerobic Gram-negative strains; conditions: 30 strains
Proteus vulgaris = test: as above; conditions: 15 strains
Enterococcus faecalis = test: MIC against clinically isolated aerobic Gram-positive strains; conditions: 30 strains
[4] = test system: Pseudomonas aeruginosa 1592E; test: MIC against standard strains (agar dilution); conditions: standard strain Pseudomonas aeruginosa 1592E, 37° C., 18 to 20 hours, read-out: Minimum Inhibitory Concentration (MIC)
Providentia sp. = test: MIC against clinically isolated aerobic Gram-negative strains; conditions: 13 strains
Moraxella catarrhalis = test: as above; conditions: 24 strains
Serratia marcescens = test: as above; conditions: 14 strains
Klebsiella pneumoniae = test: as above; conditions: 30 strains
[5] = test system: Pseudomonas aeruginosa 1771M; test: MIC against standard strains (agar dilution); conditions: read-out: Minimum Inhibitory Concentration (MIC)
Citrobacter freundii = test: MIC against clinically isolated aerobic Gram-negative strains; conditions: 14 strains
Escherichia coli TEM = test: MIC against standard strains (agar dilution); conditions: standard strain Escherichia coli TEM, 37° C., 18 to 20 hours, read-out: Minimum Inhibitory Concentration (MIC)
Staphylococcus coagulase = test: MIC against clinically isolated aerobic Gram-positive strains
Escherichia coli = test: MIC against clinically isolated aerobic Gram-negative strains; conditions: 30 strains
Bacteroides spp. = test: MIC against clinically isolated anaerobic Gram-negative strains; conditions: 11 strains
Clostridium perfringens = test: microbe, parasite or virus in culture
[6] = test system: Methicillin-sensitive Staphylococcus aureus; test: MIC against clinically isolated aerobic Gram-positive strains; conditions: 33 strains
[7] = test system: Streptococcus faecium MD 8b; test: MIC against standard strains (agar dilution); conditions: Enterococcus faecium, MD8B, standard strain Streptococcus faecium MD 8b, 37° C., 18 to 20 hours, read-out: Minimum Inhibitory Concentration (MIC)
Escherichia coli 1507E = test: MIC against standard strains (agar dilution); conditions: standard strain Escherichia coli 1507E, 37° C., 18 to 20 hours, read-out: Minimum Inhibitory Concentration (MIC)
Proteus mirabilis = test: MIC against clinically isolated aerobic Gram-negative strains; conditions: 15 strains
[8] = test system: Streptococcus pyogenes 308A; test: MIC against standard strains (agar dilution); conditions: standard strain Streptococcus pyogenes 308A, 37° C., 18 to 20 hours, read-out: Minimum Inhibitory Concentration (MIC)
Enterobacter cloacae = test: MIC against clinically isolated aerobic Gram-negative strains; conditions: 29 strains

## C[C@@H](O)[C@H]1C(=O)N2C(C(=O)O)=C(S[C@@H]3CN[C@H](C(=O)N(C)C)C3)[C@H](C)[C@H]12 [MPM, meropenem]
Morganella morganii
  MIC50: 0.06 µg/mL (≈ 0.156 µM)
  MIC90: 0.12 µg/mL (≈ 0.313 µM)
  MIC Range: 0.03 to 0.12 µg/mL
[1]
  MIC: 0.098 µg/mL (≈ 0.256 µM)
[2]
  MIC: 0.098 µg/mL (≈ 0.256 µM)
Enterobacter cloacae P99
  MIC: 0.049 µg/mL (≈ 0.128 µM)
[3]
  MIC: 0.195 µg/mL (≈ 0.509 µM)
Enterococcus faecium
  MIC50: 128 µg/mL (≈ 334 µM)
  MIC90: 128 µg/mL (≈ 334 µM)
Streptococcus pyogenes
  MIC50: < 0.008 µg/mL
  MIC90: < 0.008 µg/mL
  MIC Range: <0.008 µg/mL
Peptostreptococcus spp.
  MIC50: 0.06 µg/mL (≈ 0.156 µM)
  MIC90: 4 µg/mL (≈ 10.4 µM)
  MIC Range: 0.06 to 4 µg/mL
Streptococcus pneumoniae
  MIC50: 0.5 µg/mL (≈ 1.3 µM)
  MIC90: 0.5 µg/mL (≈ 1.3 µM)
  MIC Range: 0.008 to 0.5 µg/mL
Streptococcus agalactiae
  MIC50: 0.03 µg/mL (≈ 0.0782 µM)
  MIC90: 0.03 µg/mL (≈ 0.0782 µM)
  MIC Range: 0.03 µg/mL (≈ 0.0782 µM)
Acinetobacter baumannii
  MIC50: 1 µg/mL (≈ 2.61 µM)
  MIC90: 8 µg/mL (≈ 20.9 µM)
  MIC Range: 0.25 to 64 µg/mL
Proteus vulgaris
  MIC50: 0.06 µg/mL (≈ 0.156 µM)
  MIC90: 0.06 µg/mL (≈ 0.156 µM)
  MIC Range: 0.03 to 0.06 µg/mL
Enterococcus faecalis
  MIC50: 4 µg/mL (≈ 10.4 µM)
  MIC90: 16 µg/mL (≈ 41.7 µM)
  MIC Range: 2 to 16 µg/mL
[4]
  MIC: 0.098 µg/mL (≈ 0.256 µM)
Providentia sp.
  MIC50: 0.06 µg/mL (≈ 0.156 µM)
  MIC90: 2 µg/mL (≈ 5.22 µM)
  MIC Range: 0.015 to 2 µg/mL
Moraxella catarrhalis
  MIC50: 0.008 µg/mL (≈ 0.0209 µM)
  MIC90: 0.008 µg/mL (≈ 0.0209 µM)
  MIC Range: 0.008 to 0.03 µg/mL
Serratia marcescens
  MIC50: 0.03 µg/mL (≈ 0.0782 µM)
  MIC90: 8 µg/mL (≈ 20.9 µM)
  MIC Range: 0.03 to 8 µg/mL
Klebsiella pneumoniae
  MIC50: 0.03 µg/mL (≈ 0.0782 µM)
  MIC90: 0.06 µg/mL (≈ 0.156 µM)
  MIC Range: 0.015 to 0.06 µg/mL
[5]
  MIC: 0.098 µg/mL (≈ 0.256 µM)
Citrobacter freundii
  MIC50: 0.015 µg/mL (≈ 0.0391 µM)
  MIC90: 0.03 µg/mL (≈ 0.0782 µM)
  MIC Range: 0.015 to 0.06 µg/mL
Escherichia coli TEM
  MIC: 0.025 µg/mL (≈ 0.0652 µM)
Staphylococcus coagulase; Staphylococcus
  MIC50: 0.06 µg/mL (≈ 0.156 µM)
  MIC90: 0.12 µg/mL (≈ 0.313 µM)
Staphylococcus coagulase; clinically isolated Staphylococcus coagulase, 22 strains
  MIC Range: 0.03 to 0.5 µg/mL
Escherichia coli
  MIC50: 0.015 µg/mL (≈ 0.0391 µM)
  MIC90: 0.03 µg/mL (≈ 0.0782 µM)
  MIC Range: 0.008 to 0.5 µg/mL
Bacteroides spp.
  MIC50: 0.5 µg/mL (≈ 1.3 µM)
  MIC90: 0.5 µg/mL (≈ 1.3 µM)
  MIC Range: 0.12 to 0.5 µg/mL
Clostridium perfringens; Clostridium perfringens
  MIC50: < 0.06 µg/mL
  MIC90: < 0.06 µg/mL
Clostridium perfringens; clinically isolated anaerobic Clostridium perfringens, 13 strains
  MIC Range: <0.06 µg/mL
[6]
  MIC50: 0.12 µg/mL (≈ 0.313 µM)
  MIC90: 0.12 µg/mL (≈ 0.313 µM)
  MIC Range: 0.06 to 0.25 µg/mL
[7]
  MIC: 12.5 µg/mL (≈ 32.6 µM)
Escherichia coli 1507E
  MIC: 0.025 µg/mL (≈ 0.0652 µM)
Proteus mirabilis
  MIC50: 0.06 µg/mL (≈ 0.156 µM)
  MIC90: 0.06 µg/mL (≈ 0.156 µM)
  MIC Range: 0.015 to 0.06 µg/mL
[8]
  MIC: 0.007 µg/mL (≈ 0.0183 µM)
Enterobacter cloacae
  MIC50: 0.03 µg/mL (≈ 0.0782 µM)
  MIC90: 0.25 µg/mL (≈ 0.652 µM)
  MIC Range: 0.015 to 0.5 µg/mL
